US8614201B2 (Janssen Pharmaceutica NV, priority 2009, dated 2013)

Target: Human TRPA1 (Homo sapiens, UniProt O75762)
Assay: Assay 1: In vitro cellular testing of TRPA1 modulation (CHO-TREx, Fluo-3 calcium fluorescence, AITC agonist)
Format: cell-based
Set-up: expressed in transfected cells; host or cells: CHO-TREx cells (Invitrogen), vector pcDNA4/TO
Details: CHO-TREx cells expressing human TRPA1; Fluo-3 fluorescence (FLIPR/Tetra); agonist 15 μM allyl isothiocyanate (AITC); 30 minute antagonist incubation
In short: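 Antagonist potency is the 50% reduction of the AITC (15 μM) calcium response, Hill-fitted against no-antagonist and 10 μM ruthenium red controls. Fluo-3-loaded (4 μM) CHO-TREx cells with tetracycline-inducible human TRPA1 got compound in HEPES saline pH 7.4 for 30 min, usually from 10 μM in three-fold dilutions.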

Sequence of Human TRPA1 (O75762 whole entry): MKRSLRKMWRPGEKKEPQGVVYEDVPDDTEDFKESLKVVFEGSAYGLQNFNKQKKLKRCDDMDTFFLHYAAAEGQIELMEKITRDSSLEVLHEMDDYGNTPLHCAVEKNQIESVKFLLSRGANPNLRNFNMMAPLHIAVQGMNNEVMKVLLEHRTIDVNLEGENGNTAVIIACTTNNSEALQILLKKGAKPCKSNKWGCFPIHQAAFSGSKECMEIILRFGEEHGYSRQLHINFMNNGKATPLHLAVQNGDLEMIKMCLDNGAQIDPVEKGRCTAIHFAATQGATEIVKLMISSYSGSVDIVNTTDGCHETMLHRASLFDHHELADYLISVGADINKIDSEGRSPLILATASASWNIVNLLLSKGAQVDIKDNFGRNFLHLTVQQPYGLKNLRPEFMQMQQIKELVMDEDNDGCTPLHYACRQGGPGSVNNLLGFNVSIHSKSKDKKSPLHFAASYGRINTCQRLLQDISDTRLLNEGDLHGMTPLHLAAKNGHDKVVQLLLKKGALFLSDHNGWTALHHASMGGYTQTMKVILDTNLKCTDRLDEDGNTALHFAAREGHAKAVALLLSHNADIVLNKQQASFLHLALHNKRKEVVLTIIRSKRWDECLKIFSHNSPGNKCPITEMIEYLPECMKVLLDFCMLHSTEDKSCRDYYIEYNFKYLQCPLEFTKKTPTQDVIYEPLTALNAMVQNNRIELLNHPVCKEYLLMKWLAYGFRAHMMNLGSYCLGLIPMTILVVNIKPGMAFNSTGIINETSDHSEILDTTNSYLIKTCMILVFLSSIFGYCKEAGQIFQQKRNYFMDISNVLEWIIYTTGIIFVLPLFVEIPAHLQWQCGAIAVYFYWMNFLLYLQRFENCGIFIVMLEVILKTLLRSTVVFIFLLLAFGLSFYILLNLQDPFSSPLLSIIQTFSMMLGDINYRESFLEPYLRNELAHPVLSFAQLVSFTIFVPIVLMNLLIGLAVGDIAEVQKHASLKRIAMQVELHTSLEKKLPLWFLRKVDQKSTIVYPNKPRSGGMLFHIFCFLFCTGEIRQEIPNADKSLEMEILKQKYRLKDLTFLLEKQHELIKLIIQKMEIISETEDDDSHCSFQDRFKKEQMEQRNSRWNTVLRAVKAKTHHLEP

| SMILES | IC50 |
| --- | --- |
| O=C(NCc1cc(-c2ccc(C(F)(F)F)cc2)nc(N2CCN(Cc3ccncc3)CC2)c1)[C@@H]1CCCN1S(=O)(=O)c1ccc(F)cc1 [Example 342, 1-[(4-Fluorophenyl)sulfonyl]-N-({2-[4-(pyridin-4-ylmethyl)piperazin-1-yl]-6-[4-(trifluoromethyl)phenyl]pyridin-4-yl}methyl)-L-prolinamide] | 296 nM |
| O=C(NCc1cc(NCc2ccncc2)nc(-c2ccc(C(F)(F)F)cc2)c1)[C@@H]1CC(F)(F)CN1S(=O)(=O)c1ccc(F)cc1 [Example 343, 4,4-Difluoro-1-[(4-fluorophenyl)sulfonyl]-N-({2-[(pyridin-4-ylmethyl)amino]-6-[4-(trifluoromethyl)phenyl]pyridin-4-yl}methyl)-L-prolinamide] | 1060 nM |
| O=C(NCc1cc(NCc2ccncc2)nc(-c2ccc(C(F)(F)F)cc2)c1)[C@@H]1C=CCN1S(=O)(=O)c1ccc(F)cc1 [Example 344, (2S)-1-[(4-Fluorophenyl)sulfonyl]-N-({2-[(pyridin-4-ylmethyl)amino]-6-[4-(trifluoromethyl)phenyl]pyridin-4-yl}methyl)-2,5-dihydro-1H-pyrrole-2-carboxamide] | > 10000 nM |
| O=C(NCc1cc(NCc2cccnc2)nc(-c2ccc(C(F)(F)F)cc2)c1)[C@@H]1C=CCN1S(=O)(=O)c1ccc(Cl)s1 [Example 345, (2S)-1-[(5-Chlorothiophen-2-yl)sulfonyl]-N-({2-[(pyridin-3-ylmethyl)amino]-6-[4-(trifluoromethyl)phenyl]pyridin-4-yl}methyl)-2,5-dihydro-1H-pyrrole-2-carboxamide] | 2500 nM |
| O=C(NCc1cc(NCc2cccnc2)nc(-c2ccc(C(F)(F)F)cc2)c1)[C@@H]1C=CCN1S(=O)(=O)c1ccc(F)cc1 [Example 346, (2S)-1-[(4-Fluorophenyl)sulfonyl]-N-({2-[(pyridin-3-ylmethyl)amino]-6-[4-(trifluoromethyl)phenyl]pyridin-4-yl}methyl)-2,5-dihydro-1H-pyrrole-2-carboxamide] | > 10000 nM |
| O=C(NCc1cc(NCc2ccccn2)nc(-c2ccc(C(F)(F)F)cc2)c1)[C@@H]1CCCN1S(=O)(=O)c1ccc(Cl)s1 [Example 347, 1-[(5-Chlorothiophen-2-yl)sulfonyl]-N-({2-[(pyridin-2-ylmethyl)amino]-6-[4-(trifluoromethyl)phenyl]pyridin-4-yl}methyl)-L-prolinamide] | 518 nM |
| O=C(NCc1cc(-c2ccc(C(F)(F)F)cc2)nc(N2CCN(Cc3ccccn3)CC2)c1)[C@@H]1CCCN1S(=O)(=O)c1ccc(F)cc1 [Example 348, 1-[(4-Fluorophenyl)sulfonyl]-N-({2-[4-(pyridin-2-ylmethyl)piperazin-1-yl]-6-[4-(trifluoromethyl)phenyl]pyridin-4-yl}methyl)-L-prolinamide] | 1630 nM |
| CC(Nc1cc(CNC(=O)[C@@H]2CCCN2S(=O)(=O)c2ccc(F)cc2)cc(-c2ccc(C(F)(F)F)cc2)n1)c1cccnc1 (stereo partly drawn) [Example 349, 1-[(4-Fluorophenyl)sulfonyl]-N-({2-[(1-pyridin-3-ylethyl)amino]-6-[4-(trifluoromethyl)phenyl]pyridin-4-yl}methyl)-L-prolinamide] | 1690 nM |
| CC(Nc1cc(CNC(=O)[C@@H]2C=CCN2S(=O)(=O)c2ccc(F)cc2)cc(-c2ccc(C(F)(F)F)cc2)n1)c1cccnc1 (stereo partly drawn) [Example 350, (2S)-1-[(4-Fluorophenyl)sulfonyl]-N-({2-[(1-pyridin-3-ylethyl)amino]-6-[4-(trifluoromethyl)phenyl]pyridin-4-yl}methyl)-2,5-dihydro-1H-pyrrole-2-carboxamide] | 7260 nM |
| CC(Nc1cc(CNC(=O)[C@@H]2C=CCN2S(=O)(=O)c2ccc(Cl)s2)cc(-c2ccc(C(F)(F)F)cc2)n1)c1cccnc1 (stereo partly drawn) [Example 351, (2S)-1-[(5-Chlorothiophen-2-yl)sulfonyl]-N-({2-[(1-pyridin-3-ylethyl)amino]-6-[4-(trifluoromethyl)phenyl]pyridin-4-yl}methyl)-2,5-dihydro-1H-pyrrole-2-carboxamide] | > 10000 nM |
| O=C(NCc1cc(NCc2ccccc2)nc(-c2ccc(C(F)(F)F)cc2)c1)[C@@H]1CC(F)(F)CN1S(=O)(=O)c1ccc(Cl)s1 [Example 352, N-({2-(Benzylamino)-6-[4-(trifluoromethyl)phenyl]pyridin-4-yl}methyl)-1-[(5-chlorothiophen-2-yl)sulfonyl]-4,4-difluoro-L-prolinamide] | 7090 nM |
| O=C(NCc1cc(-c2ccc(C(F)(F)F)cc2)nc(N2CCN(Cc3ccccn3)CC2)c1)[C@@H]1C=CCN1S(=O)(=O)c1ccc(F)cc1 [Example 353, (2S)-1-[(4-Fluorophenyl)sulfonyl]-N-({2-[4-(pyridin-2-ylmethyl)piperazin-1-yl]-6-[4-(trifluoromethyl)phenyl]pyridin-4-yl}methyl)-2,5-dihydro-1H-pyrrole-2-carboxamide] | 2750 nM |
| O=C(NCc1cc(-c2ccc(C(F)(F)F)cc2)nc(N2CCN(Cc3ccccn3)CC2)c1)[C@@H]1C=CCN1S(=O)(=O)c1ccc(Cl)s1 [Example 354, (2S)-1-[(5-Chlorothiophen-2-yl)sulfonyl]-N-({2-[4-(pyridin-2-ylmethyl)piperazin-1-yl]-6-[4-(trifluoromethyl)phenyl]pyridin-4-yl}methyl)-2,5-dihydro-1H-pyrrole-2-carboxamide] | 1070 nM |
| O=C(NCc1cc(-c2ccc(C(F)(F)F)cc2)nc(N2CCN(Cc3cccnc3)CC2)c1)[C@@H]1C=CCN1S(=O)(=O)c1ccc(Cl)s1 [Example 355, (2S)-1-[(5-Chlorothiophen-2-yl)sulfonyl]-N-({2-[4-(pyridin-3-ylmethyl)piperazin-1-yl]-6-[4-(trifluoromethyl)phenyl]pyridin-4-yl}methyl)-2,5-dihydro-1H-pyrrole-2-carboxamide] | 891 nM |
| O=C(NCc1cc(-c2ccc(C(F)(F)F)cc2)nc(N2CCN(Cc3ccncc3)CC2)c1)[C@@H]1CC(F)(F)CN1S(=O)(=O)c1ccc(F)cc1 [Example 356, 4,4-Difluoro-1-[(4-fluorophenyl)sulfonyl]-N-({2-[4-(pyridin-4-ylmethyl)piperazin-1-yl]-6-[4-(trifluoromethyl)phenyl]pyridin-4-yl}methyl)-L-prolinamide] | > 10000 nM |
| O=C(NCc1cc(-c2ccc(C(F)(F)F)cc2)nc(N2CCN(c3ccccc3F)CC2)c1)[C@@H]1CC(F)(F)CN1S(=O)(=O)c1ccc(F)cc1 [Example 357, 4,4-Difluoro-N-({2-[4-(2-fluorophenyl)piperazin-1-yl]-6-[4-(trifluoromethyl)phenyl]pyridin-4-yl}methyl)-1-[(4-fluorophenyl)sulfonyl]-L-prolinamide] | > 10000 nM |
| O=C(NCc1cc(-c2ccc(C(F)(F)F)cc2)nc(N2CCN(c3ccccc3F)CC2)c1)[C@@H]1CC(F)(F)CN1S(=O)(=O)c1ccc(Cl)s1 [Example 358, 1-[(5-Chlorothiophen-2-yl)sulfonyl]-4,4-difluoro-N-({2-[4-(2-fluorophenyl)piperazin-1-yl]-6-[4-(trifluoromethyl)phenyl]pyridin-4-yl}methyl)-L-prolinamide] | > 10000 nM |
| O=C(NCc1cc(-c2ccc(C(F)(F)F)cc2)nc(N2CCN(c3ccccc3F)CC2)c1)[C@@H]1C=CCN1S(=O)(=O)c1ccc(Cl)s1 [Example 359, (2S)-1-[(5-Chlorothiophen-2-yl)sulfonyl]-N-({2-[4-(2-fluorophenyl)piperazin-1-yl]-6-[4-(trifluoromethyl)phenyl]pyridin-4-yl}methyl)-2,5-dihydro-1H-pyrrole-2-carboxamide] | 1190 nM |
| CNc1cc(CNC(=O)[C@@H]2CC(F)(F)CN2S(=O)(=O)c2ccc(F)cc2)cc(-c2ccc(C(F)(F)F)cc2)n1 [Example 360, 4,4-Difluoro-1-[(4-fluorophenyl)sulfonyl]-N-({2-(methylamino)-6-[4-(trifluoromethyl)phenyl]pyridin-4-yl}methyl)-L-prolinamide] | 2280 nM |
| O=C(NCc1cc(-c2ccc(C(F)(F)F)cc2)nc(N2CCN(Cc3ccccc3)CC2)c1)[C@@H]1C=CCN1S(=O)(=O)c1ccc(F)cc1 [Example 361, (2S)—N-({2-(4-Benzylpiperazin-1-yl)-6-[4-(trifluoromethyl)phenyl]pyridin-4-yl}methyl)-1-[(4-fluorophenyl)sulfonyl]-2,5-dihydro-1H-pyrrole-2-carboxamide] | 452 nM |
| O=C(NCc1cc(-c2ccc(C(F)(F)F)cc2)nc(N2CCN(Cc3cccnc3)CC2)c1)[C@@H]1CC(F)(F)CN1S(=O)(=O)c1ccc(F)cc1 [Example 363, 4,4-Difluoro-1-[(4-fluorophenyl)sulfonyl]-N-({2-[4-(pyridin-3-ylmethyl)piperazin-1-yl]-6-[4-(trifluoromethyl)phenyl]pyridin-4-yl}methyl)-L-prolinamide] | 4870 nM |
| O=C(NCc1cc(NCc2ccncc2)nc(-c2ccc(C(F)(F)F)cc2)c1)[C@@H]1CCCN1S(=O)(=O)c1ccc(Cl)s1 [Example 364, 1-[(5-Chlorothiophen-2-yl)sulfonyl]-N-({2-[(pyridin-4-ylmethyl)amino]-6-[4-(trifluoromethyl)phenyl]pyridin-4-yl}methyl)-L-prolinamide] | 2730 nM |
| O=C(NCc1cc(-c2ccc(C(F)(F)F)cc2)nc(N2CCN(Cc3cccnc3)CC2)c1)[C@@H]1C=CCN1S(=O)(=O)c1ccc(F)cc1 [Example 365, (2S)-1-[(4-Fluorophenyl)sulfonyl]-N-({2-[4-(pyridin-3-ylmethyl)piperazin-1-yl]-6-[4-(trifluoromethyl)phenyl]pyridin-4-yl}methyl)-2,5-dihydro-1H-pyrrole-2-carboxamide] | 1690 nM |
| O=C(NCc1cc(-c2ccc(C(F)(F)F)cc2)nc(N2CCN(Cc3cccnc3)CC2)c1)[C@@H]1CC(F)(F)CN1S(=O)(=O)c1ccc(Cl)s1 [Example 366] | 1650 nM |
